Columns and labels:
[1] = biological target: Death-associated protein kinase 3 (Homo sapiens) (UniProt O43293); conditions: Compound concentration 1000.0 nM
[2] = biological target: Beta-1 adrenergic receptor (Homo sapiens) (UniProt P08588); conditions: Compound concentration 10.0 uM
[3] = biological target: Alpha-1D adrenergic receptor (Homo sapiens) (UniProt P25100); assay: ALPHA1D/H Eurofins-Panlabs selectivity data (BI); conditions: Compound concentration 10.0 uM
[4] = biological target: Tyrosine-protein kinase Srms (Homo sapiens) (UniProt Q9H3Y6); assay: SRMS Invitrogen selectivity data (BI); conditions: Compound concentration 3.0 uM
[5] = biological target: T1, 5-hydroxytryptamine receptor 2C (Homo sapiens) (UniProt P28335); assay: 5HT2CH_AGON Cerep selectivity data (BI); conditions: filed as agonist, Compound concentration 20.0 uM
T1 sequence (whole entry): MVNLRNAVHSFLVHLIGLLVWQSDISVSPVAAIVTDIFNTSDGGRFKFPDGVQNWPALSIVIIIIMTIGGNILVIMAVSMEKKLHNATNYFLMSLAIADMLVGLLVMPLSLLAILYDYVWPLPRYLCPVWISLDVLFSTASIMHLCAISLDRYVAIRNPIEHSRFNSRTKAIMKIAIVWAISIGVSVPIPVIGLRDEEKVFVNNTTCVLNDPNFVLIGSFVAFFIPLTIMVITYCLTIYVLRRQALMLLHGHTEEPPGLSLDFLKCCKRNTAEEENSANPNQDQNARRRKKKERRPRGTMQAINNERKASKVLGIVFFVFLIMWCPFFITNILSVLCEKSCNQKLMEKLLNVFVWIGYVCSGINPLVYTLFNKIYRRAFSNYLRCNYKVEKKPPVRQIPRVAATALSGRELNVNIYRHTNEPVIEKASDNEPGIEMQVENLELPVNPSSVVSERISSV

[6] = biological target: T2, Mitogen-activated protein kinase kinase kinase 2 (Homo sapiens) (UniProt Q9Y2U5); assay: MAP3K2 Invitrogen selectivity data (BI); conditions: Compound concentration 3.0 uM
T2 sequence (whole entry): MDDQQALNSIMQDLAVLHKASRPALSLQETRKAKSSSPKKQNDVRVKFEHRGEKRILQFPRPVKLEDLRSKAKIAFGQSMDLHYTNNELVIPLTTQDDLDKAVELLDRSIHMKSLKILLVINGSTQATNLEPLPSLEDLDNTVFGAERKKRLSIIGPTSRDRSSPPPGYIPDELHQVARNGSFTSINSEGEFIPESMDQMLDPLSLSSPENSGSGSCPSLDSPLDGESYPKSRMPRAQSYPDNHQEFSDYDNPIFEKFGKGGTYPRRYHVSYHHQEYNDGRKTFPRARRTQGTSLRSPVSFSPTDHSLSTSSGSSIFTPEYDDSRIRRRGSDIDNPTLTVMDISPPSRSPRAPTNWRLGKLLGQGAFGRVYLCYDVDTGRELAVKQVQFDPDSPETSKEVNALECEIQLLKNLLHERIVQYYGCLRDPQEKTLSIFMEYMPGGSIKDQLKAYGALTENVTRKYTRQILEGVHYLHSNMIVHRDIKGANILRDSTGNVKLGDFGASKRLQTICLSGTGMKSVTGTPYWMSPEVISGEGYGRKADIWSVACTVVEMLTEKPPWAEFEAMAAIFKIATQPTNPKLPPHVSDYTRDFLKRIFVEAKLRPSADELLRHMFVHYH

[7] = biological target: Dual specificity protein kinase CLK3 (Homo sapiens) (UniProt P49761); assay: CLK3 Invitrogen selectivity data (BI); conditions: Compound concentration 3.0 uM
[8] = biological target: Mitogen-activated protein kinase kinase kinase 11 (Homo sapiens) (UniProt Q16584); assay: MAP3K11 Invitrogen selectivity data (BI); conditions: Compound concentration 3.0 uM
[9] = biological target: Protein kinase C gamma type (Homo sapiens) (UniProt P05129); assay: PRKCG Invitrogen selectivity data (BI); conditions: Compound concentration 3.0 uM
[10] = biological target: T3, Serine/threonine-protein kinase 3 (Homo sapiens) (UniProt Q13188); assay: STK3 Invitrogen selectivity data (BI); conditions: Compound concentration 3.0 uM
T3 sequence (whole entry): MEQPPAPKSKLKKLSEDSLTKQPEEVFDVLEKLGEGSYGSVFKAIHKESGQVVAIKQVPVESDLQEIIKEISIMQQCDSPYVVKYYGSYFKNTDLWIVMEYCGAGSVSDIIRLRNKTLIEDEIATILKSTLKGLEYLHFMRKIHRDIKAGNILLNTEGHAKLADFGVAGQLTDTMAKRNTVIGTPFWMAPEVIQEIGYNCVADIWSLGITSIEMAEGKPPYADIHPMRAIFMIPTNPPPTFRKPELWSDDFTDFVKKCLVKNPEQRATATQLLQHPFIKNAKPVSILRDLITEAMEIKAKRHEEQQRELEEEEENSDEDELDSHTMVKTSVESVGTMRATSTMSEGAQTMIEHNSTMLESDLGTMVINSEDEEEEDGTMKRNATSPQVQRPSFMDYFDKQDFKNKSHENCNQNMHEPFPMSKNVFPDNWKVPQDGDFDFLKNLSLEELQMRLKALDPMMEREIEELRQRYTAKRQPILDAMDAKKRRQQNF

[11] = biological target: Interleukin-1 receptor-associated kinase 1 (Homo sapiens) (UniProt P51617); assay: IRAK1 Invitrogen selectivity data (BI); conditions: Compound concentration 3.0 uM
[12] = biological target: Phosphatidylinositol 4-kinase beta (Homo sapiens) (UniProt Q9UBF8); assay: PI4KB Invitrogen selectivity data (BI); conditions: Compound concentration 3.0 uM
[13] = biological target: Glycine receptor subunit alpha-1 (Rattus norvegicus) (UniProt P07727); assay: GLYSTRYANTAG Cerep selectivity data (BI); conditions: filed as antagonist, Compound concentration 20.0 uM
[14] = biological target: Protein kinase C beta type (Homo sapiens) (UniProt P05771); assay: PRKCB2 Invitrogen selectivity data (BI); conditions: Compound concentration 3.0 uM
[15] = biological target: T4, Serine/threonine-protein kinase Nek2 (Homo sapiens) (UniProt P51955); assay: NEK2 Invitrogen selectivity data (BI); conditions: Compound concentration 3.0 uM
T4 sequence (whole entry): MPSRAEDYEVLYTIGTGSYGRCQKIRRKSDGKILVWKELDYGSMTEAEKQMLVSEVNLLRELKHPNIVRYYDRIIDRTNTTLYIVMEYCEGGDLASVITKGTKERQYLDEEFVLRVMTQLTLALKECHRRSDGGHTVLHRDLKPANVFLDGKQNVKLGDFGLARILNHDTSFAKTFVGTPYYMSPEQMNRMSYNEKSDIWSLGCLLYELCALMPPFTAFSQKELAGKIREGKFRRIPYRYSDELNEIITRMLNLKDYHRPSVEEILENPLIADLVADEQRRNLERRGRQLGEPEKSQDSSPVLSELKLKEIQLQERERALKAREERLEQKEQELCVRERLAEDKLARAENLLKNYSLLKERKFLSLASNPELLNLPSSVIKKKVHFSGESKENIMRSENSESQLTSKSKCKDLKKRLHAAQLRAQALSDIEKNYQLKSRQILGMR

[16] = biological target: Leukocyte tyrosine kinase receptor (Homo sapiens) (UniProt P29376); assay: LTK Invitrogen selectivity data (BI); conditions: Compound concentration 3.0 uM

Sequence of Tyrosine-protein kinase Srms (Homo sapiens) (Q9H3Y6 whole entry): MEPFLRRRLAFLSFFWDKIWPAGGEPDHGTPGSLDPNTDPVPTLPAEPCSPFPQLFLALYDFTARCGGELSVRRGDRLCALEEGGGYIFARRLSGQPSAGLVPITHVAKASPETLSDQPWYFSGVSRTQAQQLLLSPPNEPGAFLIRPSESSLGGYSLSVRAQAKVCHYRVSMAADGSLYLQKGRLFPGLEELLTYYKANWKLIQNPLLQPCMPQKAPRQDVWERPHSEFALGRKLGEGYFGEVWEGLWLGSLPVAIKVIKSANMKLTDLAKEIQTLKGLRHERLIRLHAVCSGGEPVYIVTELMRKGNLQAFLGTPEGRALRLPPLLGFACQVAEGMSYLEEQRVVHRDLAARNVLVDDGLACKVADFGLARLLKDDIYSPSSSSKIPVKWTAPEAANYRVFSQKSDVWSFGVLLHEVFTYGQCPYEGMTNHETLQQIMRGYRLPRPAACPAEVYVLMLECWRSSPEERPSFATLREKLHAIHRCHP
Sequence of Death-associated protein kinase 3 (Homo sapiens) (O43293 whole entry, looked up): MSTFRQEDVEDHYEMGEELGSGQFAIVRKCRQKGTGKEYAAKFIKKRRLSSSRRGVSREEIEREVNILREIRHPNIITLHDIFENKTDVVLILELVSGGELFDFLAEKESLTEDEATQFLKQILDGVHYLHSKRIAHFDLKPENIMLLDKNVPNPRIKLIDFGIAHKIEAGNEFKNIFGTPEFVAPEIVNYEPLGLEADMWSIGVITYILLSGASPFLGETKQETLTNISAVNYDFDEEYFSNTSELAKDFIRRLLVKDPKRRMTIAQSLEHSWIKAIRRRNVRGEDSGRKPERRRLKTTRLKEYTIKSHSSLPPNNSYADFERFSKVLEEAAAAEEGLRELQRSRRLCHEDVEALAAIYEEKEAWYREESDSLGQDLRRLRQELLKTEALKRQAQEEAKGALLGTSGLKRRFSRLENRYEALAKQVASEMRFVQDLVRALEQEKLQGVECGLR
Sequence of Phosphatidylinositol 4-kinase beta (Homo sapiens) (Q9UBF8 2-816 limits assumed): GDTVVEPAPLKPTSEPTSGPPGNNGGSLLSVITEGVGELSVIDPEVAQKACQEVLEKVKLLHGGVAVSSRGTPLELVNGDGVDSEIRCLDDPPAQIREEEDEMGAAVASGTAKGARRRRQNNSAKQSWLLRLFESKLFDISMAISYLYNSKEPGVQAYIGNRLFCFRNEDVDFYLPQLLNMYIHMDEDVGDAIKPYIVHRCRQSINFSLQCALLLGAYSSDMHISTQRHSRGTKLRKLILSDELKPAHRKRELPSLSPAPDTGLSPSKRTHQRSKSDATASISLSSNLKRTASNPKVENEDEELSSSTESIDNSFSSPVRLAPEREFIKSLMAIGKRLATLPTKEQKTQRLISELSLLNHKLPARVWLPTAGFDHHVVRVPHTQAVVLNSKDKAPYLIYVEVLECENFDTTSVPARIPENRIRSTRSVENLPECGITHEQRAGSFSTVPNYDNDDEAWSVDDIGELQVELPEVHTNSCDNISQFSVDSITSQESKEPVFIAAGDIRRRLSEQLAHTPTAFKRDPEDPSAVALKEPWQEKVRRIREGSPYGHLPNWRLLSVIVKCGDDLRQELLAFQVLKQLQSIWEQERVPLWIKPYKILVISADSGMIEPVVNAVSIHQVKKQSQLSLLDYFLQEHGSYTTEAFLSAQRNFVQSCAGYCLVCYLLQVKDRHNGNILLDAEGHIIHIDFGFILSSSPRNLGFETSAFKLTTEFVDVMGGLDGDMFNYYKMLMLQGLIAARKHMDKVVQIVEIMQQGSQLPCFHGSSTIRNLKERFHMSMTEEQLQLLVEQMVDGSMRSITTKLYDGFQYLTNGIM
Sequence of Protein kinase C beta type (Homo sapiens) (P05771 2-671 limits assumed): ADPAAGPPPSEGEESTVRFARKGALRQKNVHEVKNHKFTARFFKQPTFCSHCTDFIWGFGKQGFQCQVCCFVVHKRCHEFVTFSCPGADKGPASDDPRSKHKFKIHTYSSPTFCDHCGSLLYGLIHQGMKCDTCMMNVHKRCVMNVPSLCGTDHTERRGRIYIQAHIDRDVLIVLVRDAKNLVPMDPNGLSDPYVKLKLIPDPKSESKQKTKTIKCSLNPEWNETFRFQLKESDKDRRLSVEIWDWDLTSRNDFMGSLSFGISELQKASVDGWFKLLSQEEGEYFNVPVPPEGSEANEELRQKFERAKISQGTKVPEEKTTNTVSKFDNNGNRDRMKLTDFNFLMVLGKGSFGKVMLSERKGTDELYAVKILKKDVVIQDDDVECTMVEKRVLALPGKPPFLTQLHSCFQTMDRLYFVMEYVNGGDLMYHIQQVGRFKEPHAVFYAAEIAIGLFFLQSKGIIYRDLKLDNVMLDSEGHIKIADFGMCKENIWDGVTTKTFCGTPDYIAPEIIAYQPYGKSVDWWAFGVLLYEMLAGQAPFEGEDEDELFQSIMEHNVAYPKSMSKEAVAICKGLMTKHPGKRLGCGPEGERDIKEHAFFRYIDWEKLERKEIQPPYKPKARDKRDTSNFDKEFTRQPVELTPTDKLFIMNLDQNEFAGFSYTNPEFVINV
Sequence of Interleukin-1 receptor-associated kinase 1 (Homo sapiens) (P51617 whole entry, looked up): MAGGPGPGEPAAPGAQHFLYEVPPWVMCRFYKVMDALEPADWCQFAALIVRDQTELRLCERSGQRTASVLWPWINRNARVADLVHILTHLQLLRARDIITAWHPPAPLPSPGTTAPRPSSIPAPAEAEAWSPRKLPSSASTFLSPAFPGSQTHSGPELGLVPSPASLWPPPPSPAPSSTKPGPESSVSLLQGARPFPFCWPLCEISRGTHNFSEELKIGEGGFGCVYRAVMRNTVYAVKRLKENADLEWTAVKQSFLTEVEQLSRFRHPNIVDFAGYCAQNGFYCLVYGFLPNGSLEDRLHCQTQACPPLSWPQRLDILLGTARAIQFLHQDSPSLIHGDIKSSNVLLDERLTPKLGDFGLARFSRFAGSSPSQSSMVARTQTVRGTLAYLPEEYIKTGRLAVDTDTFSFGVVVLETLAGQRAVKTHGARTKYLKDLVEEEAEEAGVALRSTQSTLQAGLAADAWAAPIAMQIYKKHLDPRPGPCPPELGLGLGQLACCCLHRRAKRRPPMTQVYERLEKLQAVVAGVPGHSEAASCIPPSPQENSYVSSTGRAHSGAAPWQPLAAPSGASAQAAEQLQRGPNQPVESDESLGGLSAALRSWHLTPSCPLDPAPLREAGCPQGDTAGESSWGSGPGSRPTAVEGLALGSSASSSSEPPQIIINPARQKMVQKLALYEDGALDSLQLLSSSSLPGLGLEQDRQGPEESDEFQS
Sequence of Glycine receptor subunit alpha-1 (Rattus norvegicus) (P07727 whole entry): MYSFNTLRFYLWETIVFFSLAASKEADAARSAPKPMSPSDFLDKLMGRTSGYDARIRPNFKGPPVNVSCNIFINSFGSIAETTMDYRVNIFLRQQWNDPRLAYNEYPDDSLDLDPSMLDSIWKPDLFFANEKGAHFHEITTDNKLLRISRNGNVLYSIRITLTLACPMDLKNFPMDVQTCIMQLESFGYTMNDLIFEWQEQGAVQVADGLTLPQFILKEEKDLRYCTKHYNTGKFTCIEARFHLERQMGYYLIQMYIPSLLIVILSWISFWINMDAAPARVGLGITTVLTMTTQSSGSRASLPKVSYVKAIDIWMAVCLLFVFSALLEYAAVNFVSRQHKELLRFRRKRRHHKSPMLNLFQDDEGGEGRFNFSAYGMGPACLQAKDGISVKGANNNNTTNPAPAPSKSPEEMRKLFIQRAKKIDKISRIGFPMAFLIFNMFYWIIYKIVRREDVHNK
Sequence of Dual specificity protein kinase CLK3 (Homo sapiens) (P49761 whole entry, looked up): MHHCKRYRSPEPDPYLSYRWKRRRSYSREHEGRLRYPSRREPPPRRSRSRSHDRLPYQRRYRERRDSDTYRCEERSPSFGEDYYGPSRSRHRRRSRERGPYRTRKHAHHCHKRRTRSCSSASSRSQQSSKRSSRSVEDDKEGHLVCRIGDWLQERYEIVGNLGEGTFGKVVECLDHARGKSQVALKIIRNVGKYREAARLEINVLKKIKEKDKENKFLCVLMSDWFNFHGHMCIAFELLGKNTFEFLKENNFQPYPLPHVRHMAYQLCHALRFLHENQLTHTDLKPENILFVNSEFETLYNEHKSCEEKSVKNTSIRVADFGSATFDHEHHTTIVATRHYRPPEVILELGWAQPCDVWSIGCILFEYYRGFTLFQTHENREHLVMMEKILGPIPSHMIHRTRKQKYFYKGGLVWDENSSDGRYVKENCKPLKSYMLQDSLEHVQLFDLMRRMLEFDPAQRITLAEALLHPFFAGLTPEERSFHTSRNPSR

CN(C)C(=O)Cn1cc(-c2nc(C3(c4ccc(-c5cnc(N)nc5)cc4)CC3)no2)cn1 [BI 0153]
inactive: residual activity [1] 92% | inhibition [2] 7.58%

CN(C)C(=O)Cn1cc(-c2nc([C@@](C)(c3ccc(-c4cnc(N)nc4)cc3)C3CC3)no2)cn1 [BI 665915]
inactive: residual activity [3] 107% | residual activity [4] 98.5% | residual activity [5] 90% | residual activity [6] 97% | residual activity [7] 95.5% | residual activity [8] 96% | residual activity [9] 100% | residual activity [10] 104% | residual activity [11] 100% | residual activity [12] 95% | residual activity [13] 118% | residual activity [14] 100% | residual activity [15] 88% | residual activity [16] 96.5%

From ChEMBL document CHEMBL4507276 (2021)
